Source: patent US20070167412A1, “HALOCOMBSTATINS AND METHODS OF SYNTHESIS THEREOF” (ARIZONA BOARD OF REGENTS, priority 2003, published 2007)
Converted amounts (≈) assume the structure as drawn.

Tests used:
[1] = tested on: Colon KM20L2; experiment: human cancer cell growth inhibition, sulforhodamine B assay; assay type: cell-based; details: 48 hours
Summary of the method: (§1)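 NCI standard sulforhodamine B protocol: cells grown with compound for 48 hours, then plates fixed in trichloracetic acid, stained with sulforhodamine B and read on an automated microplate reader.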

[2] = tested on: Lung-NSC NCI-H460; experiment: as above; assay type: cell-based; details: 48 hours
Summary of the method: as §1

[3] = tested on: Prostate DU-145; experiment: as above; assay type: cell-based; details: 48 hours
Summary of the method: as §1

[4] = tested on: Breast MCF-7; experiment: as above; assay type: cell-based; details: 48 hours
Summary of the method: as §1

[5] = tested on: Pancreas BXPC-3; experiment: as above; assay type: cell-based; details: 48 hours
Summary of the method: as §1

[6] = tested on: CNS SF268; experiment: as above; assay type: cell-based; details: 48 hours
Summary of the method: as §1

[7] = tested on: tubulin; experiment: inhibition of [3H]colchicine binding to tubulin; details: 1.0 μM tubulin, 5.0 μM [3H]colchicine, inhibitor at 1.0 μM, 10 minutes at 37° C.
Description: (§2) Tubulin polymerization was evaluated by turbidimetry at 350 nm using Beckman DU7400/7500 spectrophotometers as described in detail elsewhere. […] Varying concentrations of drug were preincubated with 10 μM:M ([…]) purified tubulin (See Hamel, E., et al., Separation of Active Tubulin and Microtubule-associated Proteins by Ultracentrifiigation and Isolation of a Component Causing the Formation of Microtubule Bundles, Biochemistry 1984, 23, 4173-4184). Samples were chilled on ice, GTP (0.4 mM) was added, and polymerization was followed at 30° C. The parameter measured was extent of the reaction after 20 minutes. Coichicine binding was measured as described in detail previously. Reaction mixtures contained 1.0 μM :M tubulin, 5.0:M, [^3H]colchicine (from Dupont), and inhibitor at 1.0 μM:M. Incubation was for 10 minutes at 37° C.

[8] = tested on: T1, purified tubulin; experiment: inhibition of tubulin polymerization (turbidimetry); assay type: biochemical; details: 10 μM tubulin, GTP 0.4 mM, 30° C., extent after 20 minutes; read-out: Inhibition of polymerization IC50 ± S.D.
T1 construct: other: 10 μM tubulin, GTP 0.4 mM, 30° C., extent after 20 minutes
Description: as §2
Tubulin Evaluations: Tubulin polymerization was evaluated by turbidimetry at […] using Beckman DU7400/7500 spectrophotometers as known to one of skill in the art. Varying concentrations of the compound were preincubated with 10 μM. […]

[9] = tested on: microtubules in human umbilical vein endothelial cells (HUVEC); experiment: disruption of microtubules in HUVEC; assay type: cell-based
Description: HUVECs were isolated according to methods know to one of skill in the art (see Jaffe, E. A. et al., Culture of Human Endothelial Cells Derived From Umbilical Veins. Identification by Morphologic and Immunologic Criteria, J. Clin. Invest. 1973, 52, 2754-2756.)

[10] = tested on: Stenotrophomonas maltophilia; experiment: reference broth microdilution susceptibility assay; assay type: cell-based; details: Table III
Summary of the method: (§3)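 Compounds are serially diluted in broth and tested for microbial susceptibility by the standard microdilution procedure. Bacteria are handled per approved standard M7-A5 and yeasts per approved standard M27-A.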

[11] = tested on: Enterobacter cloacae; experiment: reference broth microdilution susceptibility assay; assay type: cell-based; details: Table III
Summary of the method: as §3

[12] = tested on: Cryptococcus neoformans; experiment: reference broth microdilution susceptibility assay; assay type: cell-based; details: Table III
Summary of the method: (§4)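 Broth microdilution, NCCLS reference protocols: M7-A5 for M. luteus and E. coli; M27-A for C. neoformans and C. albicans.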

[13] = tested on: Escherichia coli; experiment: reference broth microdilution susceptibility assay; assay type: cell-based; details: Table III
Summary of the method: as §4

[14] = tested on: Candida albicans; experiment: reference broth microdilution susceptibility assay; assay type: cell-based; details: Table III
Summary of the method: as §4

[15] = tested on: Neisseria gonorrhoeae; experiment: reference broth microdilution susceptibility assay; assay type: cell-based; details: Table III
Summary of the method: as §3

[16] = tested on: Streptococcus pneumoniae; experiment: reference broth microdilution susceptibility assay; assay type: cell-based; details: Table III
Summary of the method: as §3

[17] = tested on: Micrococcus luteus; experiment: reference broth microdilution susceptibility assay; assay type: cell-based; details: Table III
Summary of the method: as §4

[18] = tested on: Enterococcus faecalis; experiment: reference broth microdilution susceptibility assay; assay type: cell-based; details: Table III
Summary of the method: as §3

[19] = tested on: Staphylococcus aureus; experiment: reference broth microdilution susceptibility assay; assay type: cell-based; details: Table III
Summary of the method: as §3

[20] = tested on: human umbilical vein endothelial cells (HUVEC); experiment: Matrigel cord formation assay; assay type: cell-based; details: at both 0.01 and 0.001 μg/mL compared to untreated controls
Description: In vitro Matrigel antiangiogenesis assays were implemented according to the Developmental Therapeutics Program NCI/NIH protocols known to one of skill in the art. Matrigel, a basement membrane matrix, was obtained from BD Biosciences. Growth inhibition and cord formation assays were Conducted using human umbilical vein endothelial cells obtained from GlycoTeCh. HUVEC cells were grown in EGM-2 medium.
An aliquot of sixty microliters was placed in each well of an ice-cold 96-well plate. The plates were then left for 15 minutes at room temperature, then incubated for 30 minutes at 37° C. to permit the matrigel to polymerize. Meanwhile, HUVEC cells were harvested and diluted to a concentration of 2×10^5 cells/ml. A solution of 100 μL containing the compounds to be tested was added next. After 24 hours incubation, pictures were taken for each concentration using an inverted Nikon Diaphot microscope and D100 digital camera. Drug effect was assessed, compared to untreated controls, by measuring the length of cords formed and number ofjunctions.

[21] = solubility in D2O; assay type: physicochemical; details: 1 mL D2O at 25° C.
[22] = tested on: tubulin; details: earlier study, Lin et al. 1988; cited from earlier work
[23] = earlier study, Lin et al. 1988; cited from earlier work
[24] = tested on: Cryptococcus neoformans; details: previously shown, Pettit et al. 2000; cited from earlier work
[25] = tested on: purified tubulin; details: earlier study, Lin et al. 1988; cited from earlier work

Molecule	Human cancer cell line inhibition (GI50) Colon KM20L2 ([1]; Table I)	Human cancer cell line inhibition (GI50) Lung-NSC NCI-H460 ([2]; Table I)	Human cancer cell line inhibition (GI50) Prostate DU-145 ([3]; Table I)	Human cancer cell line inhibition (GI50) Breast adn MCF-7 ([4]; Table I)	Human cancer cell line inhibition (GI50) Pancreas-a BXPC-3 ([5]; Table I)	Human cancer cell line inhibition (GI50) CNS SF268 ([6]; Table I)	Inhibition of colchicine binding % inhibition ± S.D. [7]	IC50 [8]	ability to disrupt microtubules in HUVEC [9]	Range of minimum inhibitory concentration, Stenotrophomonas maltophilia [10]	Range of minimum inhibitory concentration, Enterobacter cloacae [11]	Range of minimum inhibitory concentration, Cryptococcus neoformans [12]	Range of minimum inhibitory concentration, Escherichia coli [13]	Range of minimum inhibitory concentration, Candida albicans [14]	Range of minimum inhibitory concentration, Neisseria gonorrhoeae [15]	Range of minimum inhibitory concentration, Streptococcus pneumoniae [16]	Range of minimum inhibitory concentration, Micrococcus luteus [17]	Range of minimum inhibitory concentration, Enterococcus faecalis [18]	Range of minimum inhibitory concentration, Staphylococcus aureus [19]	further results
3-Cloro-4,4′,5-trimethoxy-3′-hydroxy-Z-stilbene [Compound 12a]	0.15 µg/mL	<0.001 µg/mL	<0.001 µg/mL	<0.001 µg/mL	0.043 µg/mL	<0.001 µg/mL	85 ± 4%	1600 ± 300 nM	disrupt microtubules	* (no inhibition at 64 μg/ml)	* (no inhibition at 64 μg/ml)	64 µg/mL	* (no inhibition at 64 μg/ml)	* (no inhibition at 64 μg/ml)	16 µg/mL	32 to 64 µg/mL	32 µg/mL	* (no inhibition at 64 μg/ml)	* (no inhibition at 64 μg/ml)	–
COc1ccc(/C=C\c2cc(F)c(OC)c(OC)c2)cc1O [Compound 11a, 3-Fluoro-4,4′,5-trimethoxy-3′-hydroxy-Z-stilbene]	–	–	–	–	–	–	75 ± 6%	1500 ± 200 nM	disrupt microtubules	* (no inhibition at 64 μg/ml)	* (no inhibition at 64 μg/ml)	64 µg/mL	* (no inhibition at 64 μg/ml)	* (no inhibition at 64 μg/ml)	32 µg/mL	64 µg/mL	32 to 64 µg/mL	* (no inhibition at 64 μg/ml)	* (no inhibition at 64 μg/ml)	GI50 ([1]; Homo sapiens, KM-20L2, Table I, read-out: Human cancer cell line inhibition (GI50) Colon KM20L2): 1.1 µg/mL (≈ 3.61 µM); GI50 ([2]; Homo sapiens, NCI-H460, Table I, read-out: Human cancer cell line inhibition (GI50) Lung-NSC NCI-H460): < 0.01 µg/mL; GI50 ([3]; Homo sapiens, DU-145, Table I, read-out: Human cancer cell line inhibition (GI50) Prostate DU-145): < 0.01 µg/mL; GI50 ([4]; Homo sapiens, MCF7, Table I, read-out: Human cancer cell line inhibition (GI50) Breast adn MCF-7): < 0.01 µg/mL; GI50 ([5]; Homo sapiens, BXPC-3, Table I, read-out: Human cancer cell line inhibition (GI50) Pancreas-a BXPC-3): 0.016 µg/mL (≈ 0.0526 µM); GI50 ([6]; Homo sapiens, SF-268, Table I, read-out: Human cancer cell line inhibition (GI50) CNS SF268): < 0.01 µg/mL; Cords length as well as junction numbers [20]: markedly reduced
C1CCNCC1.C1CCNCC1.COc1ccc(/C=C\c2cc(I)c(OC)c(OC)c2)cc1OP(=O)(O)O [O]	–	–	–	–	–	–	–	–	–	–	–	–	–	–	–	–	–	–	–	human cancer cell line growth inhibition (GI50) Colon KM20L2 ([1]; Table Ia): 0.51 µg/mL; human cancer cell line growth inhibition (GI50) Lung-NSC NCI-H460 ([2]; Table Ia): 0.0036 µg/mL; human cancer cell line growth inhibition (GI50) Prostate DU-145 ([3]; Table Ia): 0.0029 µg/mL; human cancer cell line growth inhibition (GI50) Breast MCF-7 ([4]; Table Ia): 0.0065 µg/mL; human cancer cell line growth inhibition (GI50) Pancreas BXPC-3 ([5]; Table Ia): 0.32 µg/mL; human cancer cell line growth inhibition (GI50) CNS SF268 ([6]; Table Ia): 0.0044 µg/mL; Solubility [21]: ≧4 mg/mL
combretastatin A-3 [Compound 3a, reference compound]	1.2 µg/mL	0.19 µg/mL	0.0043 µg/mL	0.49 µg/mL	2.3 µg/mL	0.0083 µg/mL	–	–	–	–	–	–	–	–	–	–	–	–	–	activity relative to CA4 (1a) as an inhibitor of colchicine binding to tubulin [22]: about one fifth as active; activity relative to CA4 (1a) as an inhibitor of cell growth [23]: about one seventh as active; inhibition of growth of the pathogenic fungus Cryptococcus neoformans [24]: inhibited growth; activity relative to CA4 (1a) as an inhibitor of tubulin assembly [25]: about half as active
